According to patent publication US10577356B2, “Beta-arrestin-biased cannabinoid CB1 receptor agonists and methods for making and using them” (priority 2014, dated 2020):
Entries after “also recorded” stand apart in the source; their conditions may differ.

How the values were obtained:
CB1 [1] = molecular target: T1, CB1 (Homo sapiens, UniProt P21554); test: GTPγS stimulation levels in hCB1/HEK cells (FIG. 9); format: biochemical; set-up: expressed in transfected cells; host or cells: HEK cells (hCB1/HEK); conditions: compound applied alone
Procedure: (§1) Compounds were tested using a GTPγS assay as previously described (Shore D M, et al. J Biol Chem. 2014; 289(9):5828-45; incorporated herein by reference in its entirety). Compounds were tested using an ERK assay as previously described (Kapur A, et al. J Biol Chem. 2009; 284:29817-29827; incorporated herein by reference in its entirety).
Target sequence in this assay (P21554 whole entry): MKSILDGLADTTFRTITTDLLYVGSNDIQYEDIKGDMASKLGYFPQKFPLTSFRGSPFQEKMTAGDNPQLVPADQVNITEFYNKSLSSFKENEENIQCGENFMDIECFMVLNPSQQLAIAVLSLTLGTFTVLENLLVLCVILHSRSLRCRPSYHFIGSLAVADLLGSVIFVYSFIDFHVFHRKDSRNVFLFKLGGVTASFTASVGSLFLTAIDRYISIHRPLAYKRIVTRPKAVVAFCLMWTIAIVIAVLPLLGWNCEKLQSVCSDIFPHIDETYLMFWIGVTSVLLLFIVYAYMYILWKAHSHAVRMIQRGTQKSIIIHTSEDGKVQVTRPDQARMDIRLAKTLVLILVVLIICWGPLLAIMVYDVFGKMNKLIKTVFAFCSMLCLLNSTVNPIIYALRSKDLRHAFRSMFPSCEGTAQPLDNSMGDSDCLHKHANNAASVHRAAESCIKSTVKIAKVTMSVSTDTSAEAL

CB1 [2] = molecular target: T1, CB1; test: Effect on CP55,940 binding (Bmax) at CB1 (FIG. 3); conditions: compared with ORG27569
Target sequence in this assay (P21554 whole entry, species assumed): as the sequence (P21554 whole entry) above

CB1 [3] = molecular target: T1, CB1; test: Antagonism of CP55,940's [35S]GTPγS signaling / allosteric modulation of CB1 (FIG. 3); format: biochemical; conditions: compared with ORG27569
Procedure: as §1
Target sequence in this assay (P21554 whole entry, species assumed): as the sequence (P21554 whole entry) above

CB1 [4] = molecular target: T2, CB1 (Mus musculus, UniProt P47746); test: Basal G protein signaling, GTP-gamma-S binding, compound applied alone, membranes (FIG. 4-7); format: biochemical
T2 construct: from tissue
T2 sequence (P47746 whole entry): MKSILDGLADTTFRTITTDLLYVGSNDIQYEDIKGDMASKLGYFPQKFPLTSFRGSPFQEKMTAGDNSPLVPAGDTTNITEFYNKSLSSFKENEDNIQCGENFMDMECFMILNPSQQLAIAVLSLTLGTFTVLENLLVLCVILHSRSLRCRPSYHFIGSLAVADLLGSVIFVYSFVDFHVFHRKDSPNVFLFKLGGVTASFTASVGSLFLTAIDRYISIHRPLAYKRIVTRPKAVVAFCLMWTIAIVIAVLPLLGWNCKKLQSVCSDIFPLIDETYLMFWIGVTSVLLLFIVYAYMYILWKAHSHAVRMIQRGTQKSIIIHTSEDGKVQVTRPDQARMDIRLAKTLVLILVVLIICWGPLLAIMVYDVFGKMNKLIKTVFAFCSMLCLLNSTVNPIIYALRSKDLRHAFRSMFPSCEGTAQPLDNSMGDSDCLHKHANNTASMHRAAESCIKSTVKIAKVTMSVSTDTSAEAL
Procedure: as §1

CB1 [5] = molecular target: T1, CB1; test: ERK assay, pERK production in cells (FIG. 8, FIG. 10); format: cell-based; conditions: compound applied alone
Procedure: as §1
Target sequence in this assay (P21554 whole entry, species assumed): as the sequence (P21554 whole entry) above

Compound	GTP-gamma-S binding at the human CB1 receptor (CB1 [1])	effect on CP55,940's Bmax (CB1 [2])	allosteric modulation of CB1 (effects on binding and G protein-mediated signaling) (CB1 [3])	antagonism of CP55,940's [35S]GTPλS signaling (CB1 [3])	effect on basal G protein signaling (GTP-gamma-S binding) (CB1 [4])	ERK signaling / pERK production (CB1 [5])
CCCCCCC(C)(C)c1ccc([C@@H]2C[C@H](O)CC[C@H]2CCCO)c(O)c1 [CP55940, reference compound]	causes a rise in GTP-gamma-S binding	–	–	–	–	–
CCc1c(C(=O)NC[C@@H](O)c2ccc(N3CCCCC3)cc2)[nH]c2ccc(Cl)cc12 [Compound 1, 5-Chloro-3-ethyl-N-[(2S)-2-hydroxy-2-[4-(piperidin-1-yl)phenyl]ethyl]-1H-indole-2-carboxamide]	–	does not improve CP55,940's Bmax as well as ORG27569	less potent and efficacious negative allosteric modulator of CB1 than ORG27569	does not antagonize CP55,940's [^35S]GTPλS signaling as well as ORG27569	no effect on GTP-gamma-S binding; also recorded: does not act as an inverse agonist of [^35S]GTPλS signaling	–
CCc1c(C(=O)NC[C@H](O)c2ccc(N3CCCCC3)cc2)[nH]c2ccc(Cl)cc12 [Compound 2, 5-Chloro-3-ethyl-N-[(2R)-2-hydroxy-2-[4-(piperidin-1-yl)phenyl]ethyl]-1H-indole-2-carboxamide]	–	improves CP55,940's Bmax better than as ORG27569	more potent negative allosteric modulator than ORG27569	antagonizes CP55,940's [^35S]GTPλS signaling as well as ORG27569	partial agonist in membranes; also recorded: does not act as an inverse agonist of [^35S]GTPλS signaling; also recorded: may act as a weak agonist of G protein-mediated signaling	–
CCc1c(C(=O)NCCc2ccc(N3CCCCC3)cc2C2CC2)[nH]c2ccc(Cl)cc12 [Compound 3, 5-Chloro-N-{2-[2-cyclopropyl-4-(piperidin-1-yl)phenyl]ethyl}-3-ethyl-1H-indole-2-carboxamide]	no effect on GTP-gamma-S binding; also recorded: did not have any significant effect on [^35S]GTPλS signaling when applied alone	does not improve CP55,940's Bmax (and may actually reduce it)	does not act as an allosteric modulator of CB1	–	no effect on GTP-gamma-S binding	robust effect, particularly at early time points, compared to CP (CP55,940); also recorded: does generate an ERK signal
O=C(NCCc1ccc(N2CCCCC2)cc1)c1[nH]c2ccc(Cl)cc2c1Cc1ccccc1 [Compound 4, 3-Benzyl-5-chloro-N-{2-[4-(piperidin-1-yl)phenyl]ethyl}-1H-indole-2-carboxamide]	–	did not affect CP55,940's Bmax	–	antagonized CP55,940's [^35S]GTPλS signaling as well as ORG27569	no effect on GTP-gamma-S binding; also recorded: does not act as an inverse agonist of [^35S]GTPλS signaling	may act as a weak inverse agonist of ERK signaling
CCc1c(C(=O)NCCc2ccc(N3CCCCC3)cc2)[nH]c2ccc(Cl)cc12 [ORG27569, reference compound]	causes a decrease (including below basal)	–	–	–	–	–
